# Measurements published in patent US9221834B2 (Merck Sharp & Dohme Corp., priority 2010, dated 2015).
# Tested on: not given
# Test: not given
# Details: patients treated with anacetrapib; cited from earlier work
row,Structure (SMILES),increase in mortality
1,COc1cc(F)c(C(C)C)cc1-c1ccc(C(F)(F)F)cc1CN1C(=O)O[C@H](c2cc(C(F)(F)F)cc(C(F)(F)F)c2)[C@@H]1C [anacetrapib],unlikely

# Same assay, conditions: patients, with baseline statin therapy, compared with just a statin; cited from earlier work
Structure (SMILES),decrease of LDL-C,increase of HDL-C
COc1cc(F)c(C(C)C)cc1-c1ccc(C(F)(F)F)cc1CN1C(=O)O[C@H](c2cc(C(F)(F)F)cc(C(F)(F)F)c2)[C@@H]1C [anacetrapib],40%,138%

# Molecular target: T1, recombinant CETP (rCETP) (Homo sapiens, UniProt P11597)
# T1 sequence (P11597 18-493): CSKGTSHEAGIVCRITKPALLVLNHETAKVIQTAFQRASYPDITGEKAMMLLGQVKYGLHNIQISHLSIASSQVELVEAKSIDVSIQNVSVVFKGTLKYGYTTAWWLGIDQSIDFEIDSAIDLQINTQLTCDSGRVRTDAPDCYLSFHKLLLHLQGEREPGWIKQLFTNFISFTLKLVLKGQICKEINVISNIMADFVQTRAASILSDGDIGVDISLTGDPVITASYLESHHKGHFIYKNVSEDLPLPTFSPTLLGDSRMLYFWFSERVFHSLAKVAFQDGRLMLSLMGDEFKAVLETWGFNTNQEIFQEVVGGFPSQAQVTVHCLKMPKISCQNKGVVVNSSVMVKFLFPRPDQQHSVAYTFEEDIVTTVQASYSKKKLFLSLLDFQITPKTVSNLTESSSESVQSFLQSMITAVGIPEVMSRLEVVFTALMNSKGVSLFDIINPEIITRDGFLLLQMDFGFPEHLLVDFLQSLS
# Test: RTA assay using recombinant CETP (2% RTA)
# Format: biochemical
# Details: RTA assay in 2% human serum; read-out: IC50
# Method in brief: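 Compounds preincubated 1 h at 37 °C with assay cocktail (CETP buffer: 50 mM Tris pH 7.4, 100 mM NaCl, 1 mM EDTA; human HDL acceptor); transfer started with [3H]cholesteryl oleate- or [3H]triolein-labelled LDL, 60 min at 37 °C. LDL PEG-precipitated; supernatant counted by scintillation, blank-corrected; IC50 from 4-parameter sigmoidal fit of % inhibition vs DMSO control.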
row,Structure (SMILES),IC50
1,COc1ccc(CCC(=O)O)cc1-c1cnc(N2CCC2)nc1CN1C(=O)O[C@H](c2cccc(C(F)(F)F)c2)[C@@H]1C [Example 273],2300 nM
2,COc1ccc(C2C[C@H]2C(=O)O)cc1-c1cnc(N2CCC2)nc1CN1C(=O)O[C@H](c2cccc(C(F)(F)F)c2)[C@@H]1C (some centres unmarked) [Example 274],1620 nM
3,Cc1cc(C(=O)O)ccc1-c1cccc(-c2cnc(N3CCC3)nc2CN2C(=O)O[C@H](c3cccc(C(F)(F)F)c3)[C@@H]2C)c1 [Example 275],605 nM
4,Cc1cc(C(=O)O)ccc1-c1cc(-c2cnc(N3CCC3)nc2CN2C(=O)O[C@H](c3cccc(C(F)(F)F)c3)[C@@H]2C)ccc1F [Example 276],76 nM
5,COc1cc(F)c(-c2ccc(C(=O)O)cc2C)cc1-c1cnc(N2CCC2)nc1CN1C(=O)O[C@H](c2ccc(F)cc2)[C@@H]1C [Example 279],189 nM
6,C[C@H]1[C@@H](c2cc(C(F)(F)F)cc(C(F)(F)F)c2)OC(=O)N1Cc1nc(N2CCC2)ncc1-c1cc(CCC(=O)O)ccc1Cl [Example 280],23 nM
7,"COc1ccc([C@H]2CC[C@H](C(=O)O)CC2)cc1-c1ccc(N2CC(F)(F)C2)nc1CN1C(=O)O[C@H](c2cc(F)cc(C(F)(F)F)c2)[C@@H]1C [Example 283, trans-4-{3-[6-(3,3-difluoroazetidin-1-yl)-2-({(4S,5R)-5-[3-fluoro-5-(trifluoromethyl)phenyl]-4-methyl-2-oxo-1,3-oxazolidin-3-yl}methyl)pyridin-3-yl]-4-methoxyphenyl}cyclohexanecarboxylic acid]",9 nM
8,COc1ccc(-n2ncc(C(=O)O)c2C(F)(F)F)cc1-c1c(C)cc(N2CCC2)nc1CN1C(=O)O[C@H](c2cc(C(F)(F)F)cc(C(F)(F)F)c2)[C@@H]1C [Example 285],4 nM
9,COc1c(F)cc(-c2ccc(C(=O)O)cc2C)cc1-c1c(C)cc(N2CCC2)nc1CN1C(=O)O[C@H](c2cc(C(F)(F)F)cc(C(F)(F)F)c2)[C@@H]1C [Example 287],3 nM
10,Cc1cc(C(=O)O)ccc1-c1cc(F)cc(-c2ccc(N3CCC3)nc2CN2C(=O)O[C@H](c3cc(C(F)(F)F)cc(C(F)(F)F)c3)[C@@H]2C)c1 [Example 288],11 nM
11,COc1ccc(-c2ccc(C(=O)O)cc2C)cc1-c1ccc(N2CCC2)nc1CN1C(=O)O[C@H](c2cc(C(F)(F)F)cc(C(F)(F)F)c2)[C@@H]1C [Example 289],7 nM
12,C[C@H]1[C@@H](c2cc(F)cc(C(F)(F)F)c2)OC(=O)N1Cc1nc(N2CC(F)(F)C2)ncc1-c1cc([C@H]2CC[C@H](C(=O)O)CC2)ccc1Cl [Example 291],49 nM
13,COc1ccc([C@H]2CC[C@H](C(=O)O)CC2)cc1-c1c(C)cc(N2CCC2)nc1CN1C(=O)O[C@H](c2cc(F)cc(C(F)(F)F)c2)[C@@H]1C [Example 292],7 nM
14,COc1ccc([C@H]2CC[C@H](C(=O)O)CC2)cc1-c1ccc(N2CC(F)(F)C2)nc1CN1C(=O)O[C@H](c2cc(C)cc(C(F)(F)F)c2)[C@@H]1C [Example 293],7 nM
15,COc1ccc([C@H]2CC[C@H](C(=O)O)CC2)cc1-c1ccc(N2CC(F)(F)C2)nc1CN1C(=O)O[C@H](c2cccc(OC(F)(F)F)c2)[C@@H]1C [Example 294],102 nM
16,COc1ccc([C@H]2C[C@H](C(=O)O)C2)cc1-c1ccc(N2CC(F)(F)C2)nc1CN1C(=O)O[C@H](c2cccc(OC(F)(F)F)c2)[C@@H]1C [Example 295],114 nM
17,COc1cc(F)c(-c2ccc(C(=O)O)cc2C)cc1-c1ccc(N2CC(F)(F)C2)nc1CN1C(=O)O[C@H](c2cccc(OC(F)(F)F)c2)[C@@H]1C [Example 296],8 nM
18,COc1ccc(CCC(=O)O)cc1-c1ccc(N2CC(F)(F)C2)nc1CN1C(=O)O[C@H](c2cccc(OC(F)(F)F)c2)[C@@H]1C [Example 297],375 nM

# Same assay, conditions: value printed with the example; serum level not stated there; read-out: RTA
row,Structure (SMILES),IC50
1,COc1ccc(-c2ccc(C(=O)O)cc2C)cc1-c1cnc(N2CCC2)nc1CN1C(=O)O[C@H](c2cc(Cl)cc(Cl)c2)[C@@H]1C [Example 302],4.43 nM
2,"COc1cc(F)c(C(C)C)cc1-c1cnc(N2CC(F)C2)nc1CN1C(=O)O[C@H](c2cc(C3CC3)cc(C(F)(F)F)c2)[C@@H]1C [Example 303, (4S,5R)-5-[3-cyclopropyl-5-(trifluoromethyl)phenyl]-3-({2-(3-fluoroazetidin-1-yl)-5-[4-fluoro-2-methoxy-5-(propan-2-yl)phenyl]pyrimidin-4-yl}methyl)-4-methyl-1,3-oxazolidin-2-one]",98 nM
